Reference: publication PMC7318034, “Safety, Pharmacokinetics, and Drug-Drug Interaction Potential of Intravenous Durlobactam, a β-Lactamase Inhibitor, in Healthy Subjects” (Antimicrobial Agents and Chemotherapy, 2020)
Read-outs that look alike come from different tables or passages of the source.

Key:
[1] = Part B multiple-ascending-dose plasma PK in healthy subjects; type: in vivo, human; conditions: for Cmax / Tmax / AUC / clearance / half-life / Vd: human, plasma, iv; for AUC: read-out: AUC0–tau; for Vd: read-out: Vss
Protocol: This was a 4-part, double-blind, placebo-controlled study (15 cohorts) of DUR administered as a 3-h i.v. infusion (except for cohort 4, in which a 2-h i.v. infusion was evaluated) (see Table S5 in the supplemental material).
(§1) The blank control matrix was made up of human plasma (BioreclamationIVT) diluted 1:1 with SigmaFast (reconstituted protease inhibitor cocktail tablet [product S8820; Sigma-Aldrich, St. Louis, MO] in 10 ml of water) for preparation of calibration standards and QC samples. […] A 100-μl aliquot of the supernatant was transferred to 96-well plates. Samples were diluted further with 400 μl of water, and 5 μl of sample was injected into the LC-MS/MS system for analysis. […] The LLOQ for all analytes was 5 ng/ml.
(§2) AUC was calculated using the log-linear trapezoidal rule.
(§3) Pharmacokinetic parameters were summarized at each assessment time point using the mean ± standard deviation (SD), the percent coefficient of variation (CV), median, minimum, and maximum. Single-ascending-dose study data were assessed for dose proportionality using Cmax and AUC, and accumulation ratios was determined using repeat-dose cohorts. […] Noncompartmental analysis of PK parameters was performed using Phoenix WinNonlin (v6.4) software to determine PK parameters.

clinical = conditions: human, in vivo
Protocol: as §1, §2, §3

[2] = Protein binding in human plasma; type: in vitro ADME
renal transporter OAT1 = target: T1, renal transporter OAT1 (Homo sapiens, UniProt Q4U2R8); test: In vitro assessment of transporter interactions; type: in vitro ADME; conditions: data not published
T1 sequence (Q4U2R8 1-563): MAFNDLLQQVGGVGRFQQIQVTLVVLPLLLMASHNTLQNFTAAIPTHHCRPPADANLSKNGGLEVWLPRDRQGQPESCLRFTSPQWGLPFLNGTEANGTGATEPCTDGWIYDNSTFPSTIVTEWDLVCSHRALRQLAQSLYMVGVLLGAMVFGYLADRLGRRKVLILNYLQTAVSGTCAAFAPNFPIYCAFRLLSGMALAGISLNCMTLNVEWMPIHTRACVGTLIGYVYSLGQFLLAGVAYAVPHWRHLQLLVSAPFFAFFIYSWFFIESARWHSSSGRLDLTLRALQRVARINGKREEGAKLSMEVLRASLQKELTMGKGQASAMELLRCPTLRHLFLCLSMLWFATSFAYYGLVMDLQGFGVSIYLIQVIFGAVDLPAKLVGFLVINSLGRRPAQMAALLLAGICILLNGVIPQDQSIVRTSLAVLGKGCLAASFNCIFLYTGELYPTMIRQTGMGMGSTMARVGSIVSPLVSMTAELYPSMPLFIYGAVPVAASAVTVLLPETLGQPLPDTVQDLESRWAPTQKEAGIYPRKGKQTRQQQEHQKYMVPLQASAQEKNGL

[3] = 0.25 g, part B cohort 9, 0.25 g q6h 3-h i.v. infusion, day 1
[4] = 0.25 g, part B cohort 9, 0.25 g q6h 3-h i.v. infusion, day 8
[5] = 0.5 g, part B cohort 10 (4 subjects), 0.5 g q6h 3-h i.v. infusion, day 1
[6] = 0.5 g, part B cohort 10 (4 subjects), 0.5 g q6h 3-h i.v. infusion, day 8
[7] = 1 g, part B cohort 11 (5 subjects), 1.0 g q6h 3-h i.v. infusion, day 1
[8] = 1 g, part B cohort 11 (5 subjects), 1.0 g q6h 3-h i.v. infusion, day 8
[9] = 2 g, part B cohort 12, 2.0 g q6h 3-h i.v. infusion, day 1
[10] = 2 g, part B cohort 12, 2.0 g q6h 3-h i.v. infusion, day 8
[11] = part B cohort 9, 0.25 g q6h 3-h i.v. infusion, day 8
[12] = part B cohort 10 (4 subjects), 0.5 g q6h 3-h i.v. infusion, day 8
[13] = part B cohort 11 (5 subjects), 1.0 g q6h 3-h i.v. infusion, day 8
[14] = part B cohort 12, 2.0 g q6h 3-h i.v. infusion, day 8

CC1=C[C@@H]2CN(C(=O)N2OS(=O)(=O)O)[C@@H]1C(N)=O [DUR, Durlobactam]
Cmax [1, 3]: 6900 ± 1400 ng/mL | Tmax ([1]; 0.25 g, part B cohort 9, 0.25 g q6h 3-h i.v. infusion, day 1, median): 3 h | AUC [1, 3]: 23100 ± 4900 ng·h/mL | Cmax [1, 4]: 7500 ± 1300 ng/mL | Tmax ([1]; 0.25 g, part B cohort 9, 0.25 g q6h 3-h i.v. infusion, day 8, median): 2.5 h | AUC [1, 4]: 26200 ± 5200 ng·h/mL | Cmax [1, 5]: 14900 ± 2200 ng/mL | Tmax ([1]; 0.5 g, part B cohort 10 (4 subjects), 0.5 g q6h 3-h i.v. infusion, day 1, median): 3 h | AUC [1, 5]: 50300 ± 9000 ng·h/mL | Cmax [1, 6]: 14800 ± 1100 ng/mL | Tmax ([1]; 0.5 g, part B cohort 10 (4 subjects), 0.5 g q6h 3-h i.v. infusion, day 8, median): 3 h | AUC [1, 6]: 53400 ± 4800 ng·h/mL | Cmax [1, 7]: 26900 ± 13100 ng/mL | Tmax ([1]; 1 g, part B cohort 11 (5 subjects), 1.0 g q6h 3-h i.v. infusion, day 1, median): 2.5 h | AUC [1, 7]: 79800 ± 35900 ng·h/mL | Cmax [1, 8]: 33400 ± 6000 ng/mL | Tmax ([1]; 1 g, part B cohort 11 (5 subjects), 1.0 g q6h 3-h i.v. infusion, day 8, median): 3 h | AUC [1, 8]: 109000 ± 13900 ng·h/mL | Cmax [1, 9]: 51900 ± 8000 ng/mL | Tmax ([1]; 2 g, part B cohort 12, 2.0 g q6h 3-h i.v. infusion, day 1, median): 3 h | AUC [1, 9]: 179000 ± 29900 ng·h/mL | Cmax [1, 10]: 53300 ± 7800 ng/mL | Tmax ([1]; 2 g, part B cohort 12, 2.0 g q6h 3-h i.v. infusion, day 8, median): 3 h | AUC [1, 10]: 193000 ± 31200 ng·h/mL | clearance [1, 11]: 163 mL/min | half-life [1, 11]: 1.9 ± 0.4 h | Vd [1, 11]: 18.5 ± 2.9 L | clearance [1, 12]: 157 mL/min | half-life [1, 12]: 2.6 ± 0.1 h | Vd [1, 12]: 18.1 ± 1.8 L | clearance [1, 13]: 155 mL/min | half-life [1, 13]: 3.5 ± 0.9 h | Vd [1, 13]: 17.2 ± 2 L | clearance [1, 14]: 177 mL/min | half-life [1, 14]: 10.1 ± 2.9 h | Vd [1, 14]: 21.8 ± 2 L | Accum. index [1, 11]: 1.1 ± 0.07 | Accum. index [1, 12]: 1.3 ± 0.01 | Accum. index [1, 13]: 1.5 ± 0.18 | Accum. index [1, 14]: 3.0 ± 0.69 | AUC0–24 (clinical): 104400 ± 6600 ng·h/mL | CL (clinical): 9.6 ± 0.6 L/h | Cmax (clinical): 26900 ± 3600 ng/mL | Vss (clinical): 17.6 ± 2.0 L | AUC(0-t) (clinical; AUC0–24): 106000 ± 31500 ng·h/mL | clearance (clinical; CL): 165 mL/min | Cmax (clinical; Cmax): 30000 ± 9200 ng/mL | Vd (clinical; Vss): 15.9 ± 2.6 L | half-life (clinical; t1/2): 1.8 ± 0.4 h | fraction unbound [2]: 0.1 | substrate of renal transporter OAT1 (renal transporter OAT1): affinity of the substrate for the renal transporter OAT1
